Source: ChEMBL document CHEMBL1134013, “Synthesis and biological evaluation of benzo[b]naphthyridones, a series of new topical antibacterial agents” (2001)
≈ marks a conversion by molar mass, not a printed value.

Assays:
Staphylococcus hominis = assay: Minimum inhibitory concentration against Quinolone sensitive Staphylococcus hominis IP8203 Strain.; assay type: functional
Staphylococcus aureus = assay: Minimum inhibitory concentration against Quinolone Resistant Staphylococcus aureus LF11C128B Strain.; assay type: functional

SMILES | MIC (Staphylococcus hominis) [µg/mL] | MIC (Staphylococcus aureus) [µg/mL]
Cn1cc(C(=O)O)c(=O)c2cc3cc(F)c(N4CCN(Cc5ccc(F)cc5)CC4)cc3nc21 | 0.5 (≈ 1.08 µM) | 1 (≈ 2.15 µM)
C/C(=C\C(=O)OCCCCCCCCC(=O)[O-])C[C@@H]1OC[C@H](C[C@@H]2O[C@H]2[C@@H](C)[C@H](C)O)[C@@H](O)[C@H]1O.C/C(=C\C(=O)OCCCCCCCCC(=O)[O-])C[C@@H]1OC[C@H](C[C@@H]2O[C@H]2[C@@H](C)[C@H](C)O)[C@@H](O)[C@H]1O.[Ca+2] | 0.5 | 0.5
C[N+](C)(C)CCO.Cn1cc(C(=O)[O-])c(=O)c2cc3cc(F)c(N4CCN(c5ccc(F)cc5)CC4)cc3nc21 | 0.25 | 0.5
Cn1cc(C(=O)O)c(=O)c2cc3cc(F)c(NC4CCCCC4)cc3nc21 | 1 (≈ 2.71 µM) | 1 (≈ 2.71 µM)
Cn1cc(C(=O)O)c(=O)c2cc3cc(F)c(N4CCCCCCC4)cc3nc21 | 1 (≈ 2.61 µM) | 1 (≈ 2.61 µM)
CSCc1cccc(N2CCN(c3cc4nc5c(cc4cc3F)c(=O)c(C(=O)O)cn5C)CC2)c1 | 4 (≈ 8.12 µM) | 4 (≈ 8.12 µM)
CCn1cc(C(=O)O)c(=O)c2cc(F)c(N3CCN(C)CC3)cc21 [PEFLOXACIN] | 0.5 (≈ 1.5 µM) | 
